Like-named read-outs stand apart in the source and are kept apart here. Starred links: 1 amine or outer side, 2 acyl side, 3 side chain; linkers in the order of their positions; H or OH if unused. Positions of bridges follow the written chain, without caps; N, C: chain ends. Non-standard residues stand in square brackets, D forms with d. Residues, ends and D or L forms follow the SMILES beside them. Chains are numbered I, II in the order given. Actinocin(1to9) = Cc1c2oc3c(C)ccc(C(=O)[*:2])c3nc-2c(C(=O)[*:1])c(N)c1=O; Actinocin(9to1) = Cc1c2oc3c(C)ccc(C(=O)[*:1])c3nc-2c(C(=O)[*:2])c(N)c1=O; Pro(4-oxo) = O=C1CN[C@H](C(=O)O)C1; NMeV = CN[C@H](C(=O)O)C(C)C; Sar = CNCC(=O)O
Key:
[1] = molecular target: T1, human methionine aminopeptidase type 2 (HsMetAP2) (Homo sapiens, UniProt P50579); assay: Inhibition of recombinant human MetAP2, fluorogenic substrate Met-AMC; assay type: biochemical; details: for mechanism of inhibition of HsMetAP2: from Lineweaver-Burk and Dixon plots
T1 construct: purchased R&D Systems
T1 sequence (P50579 whole entry): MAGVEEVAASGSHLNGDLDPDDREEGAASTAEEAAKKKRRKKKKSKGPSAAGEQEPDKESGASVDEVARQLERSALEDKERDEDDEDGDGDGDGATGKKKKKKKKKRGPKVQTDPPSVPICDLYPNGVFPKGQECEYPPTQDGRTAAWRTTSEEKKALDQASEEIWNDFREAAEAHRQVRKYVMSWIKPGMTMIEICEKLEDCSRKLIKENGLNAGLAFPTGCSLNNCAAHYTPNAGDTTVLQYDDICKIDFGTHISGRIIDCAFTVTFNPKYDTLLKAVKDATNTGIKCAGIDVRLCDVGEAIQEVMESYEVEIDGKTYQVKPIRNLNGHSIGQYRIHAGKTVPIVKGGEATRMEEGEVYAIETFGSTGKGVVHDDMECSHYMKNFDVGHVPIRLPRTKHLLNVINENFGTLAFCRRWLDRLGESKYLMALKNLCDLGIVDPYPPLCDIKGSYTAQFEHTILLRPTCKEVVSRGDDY
Excerpt: (§1) Actinomycin D was purchased as a lyophilized powder from Sigma-Aldrich (Poznan, Poland), Actinomycin X2 was purchased form Adipogen (Liestal, Switzerland). Actinocine and Questiomycin A were synthesized according to a previously described procedure. Recombinant human APN and MetAP2 were purchased as a lyophilized powder from R&D Systems (Minneapolis, USA). Fluorogenic substrates Ala-AMC (L-alanine-4-methylcoumaryl-7-amide) and Met-AMC (L-methionine-4-methylcoumaryl-7-amide) were purchased from PeptaNova (Sandhausen, Germany). Spectrofluorometry was performed on a Spectra MAX Gemini EM fluorimeter (Molecular Devices, Sunnyvale, USA) in a 96-well plate format (Excitation = 355 nm, Emission = 460 nm). Calculations of the kinetic parameters were performed using the SoftMax Pro, GraphPad Prism and Microsoft Excel programs.
(§2) Recombinant human APN enzyme was dissolved in 50 mM Tris-HCl buffer (pH = 7.0) and used directly in the kinetic experiments. Recombinant human MetAP2 was obtained as a lyophilized powder from R&D Systems. The enzyme was dissolved in 100 mM Tris-maleate buffer containing 0.1 mM CoCl2, 100 mM NaCl and 0.075 % v/v albumin at pH = 7.5 and incubated for 30 minutes. After this activation, the enzyme was used directly in the kinetic experiments.
(§3) The inhibitors were screened against human APN and human MetAP2 at 37°C in the assay buffer as described above. For the steady-state measurements, the enzymes were preincubated for 30-60 min at 37°C with an inhibitor before adding the substrate (Ala-AMC, 40 μM for human APN or Met-AMC and 50 μM for MetAP2) to the wells. For the initial state measurements, the enzymes were preincubated for 15-30 min at 37°C before adding the substrate and inhibitor to the wells. The following conditions were used: (1) total volume 100 μL, (2) eight different inhibitor concentrations, and (3) enzyme concentration of 0.3 nM for human APN and 1 nM for MetAP2. The release of the AMC fluorophore was monitored. The linear portion of the progress curve was used to calculate the velocity. hPhePCH2Phe for APN and ebselen for MetAP2 were used as a positive control. The inhibition mechanism was determined from the Lineweaver-Burk and Dixon plot (Figure 2B and 2D). The IC50 values were calculated from the reaction velocity to inhibitor concentration plot fitted to the equation log[I] vs. response. The Ki values were equal to the IC50 for non-competitive inhibitors and were calculated for competitive inhibitors using the following equation: Ki = (IC50-[E]/2)/ (1 + ([S]/Km)), where the IC50 is the concentration of the inhibitor that effected 50% inhibition, [S] and Km are the substrate concentration and Michaelis constant in the absence of inhibitor, respectively, and [E] is the concentration of the enzyme.

[2] = system: human acute B- and T-lymphoblastic leukemia, cervix carcinoma and larynx carcinoma; design: method as in PMID 12431048; details: read-out: IC50 cytotoxicity; cited from earlier work
[3] = molecular target: T2, human alanine aminopeptidase (HsAPN) (Homo sapiens, UniProt P15144); assay: Inhibition of recombinant human APN, fluorogenic substrate Ala-AMC; assay type: biochemical; details: for mechanism of inhibition of HsAPN: from Lineweaver-Burk and Dixon plots
T2 construct: purchased R&D Systems
T2 sequence (P15144 whole entry): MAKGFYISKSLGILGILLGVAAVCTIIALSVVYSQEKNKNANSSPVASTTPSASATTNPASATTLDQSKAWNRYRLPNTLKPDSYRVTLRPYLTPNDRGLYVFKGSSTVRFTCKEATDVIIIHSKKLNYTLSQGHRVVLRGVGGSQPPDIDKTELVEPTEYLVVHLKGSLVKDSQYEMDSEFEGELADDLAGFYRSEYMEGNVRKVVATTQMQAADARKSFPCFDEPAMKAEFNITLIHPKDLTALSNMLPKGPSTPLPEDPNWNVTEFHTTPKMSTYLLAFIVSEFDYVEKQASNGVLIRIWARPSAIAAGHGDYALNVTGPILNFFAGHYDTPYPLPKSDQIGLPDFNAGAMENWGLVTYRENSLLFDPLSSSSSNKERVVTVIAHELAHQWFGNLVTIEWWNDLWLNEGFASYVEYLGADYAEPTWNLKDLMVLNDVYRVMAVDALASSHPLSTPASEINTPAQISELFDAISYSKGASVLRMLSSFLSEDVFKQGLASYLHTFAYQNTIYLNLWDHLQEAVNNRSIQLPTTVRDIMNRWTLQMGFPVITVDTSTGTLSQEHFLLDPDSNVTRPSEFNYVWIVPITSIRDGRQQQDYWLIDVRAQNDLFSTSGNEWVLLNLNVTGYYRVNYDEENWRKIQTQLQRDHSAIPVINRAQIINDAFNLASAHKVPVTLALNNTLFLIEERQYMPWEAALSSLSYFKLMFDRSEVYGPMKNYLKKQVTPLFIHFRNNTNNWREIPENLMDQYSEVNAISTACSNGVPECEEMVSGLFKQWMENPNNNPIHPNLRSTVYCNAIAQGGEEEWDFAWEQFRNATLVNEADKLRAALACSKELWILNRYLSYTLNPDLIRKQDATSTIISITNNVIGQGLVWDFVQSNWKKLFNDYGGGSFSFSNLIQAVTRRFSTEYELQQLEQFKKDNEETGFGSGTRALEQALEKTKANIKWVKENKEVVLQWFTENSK
Excerpt: as §1, §2, §3

[4] = system: human leukemia cell line HL-60; details: read-out: LC50 (lethal concentration for a half of population), cytotoxicity HL-60; cited from earlier work
[5] = TRIS buffer, 37°C, average with standard deviation, at least three experiments, read-out: IC50 HsMetAP
[6] = TRIS buffer, 37°C, calculated by Cheng-Prusoff equations for non-competitive and competitive inhibitors, average with standard deviation, at least three experiments, read-out: Ki HsMetAP
[7] = TRIS buffer, 37°C, average with standard deviation, at least three experiments, read-out: IC50 HsAPN
[8] = TRIS buffer, 37°C, calculated by Cheng-Prusoff equations for non-competitive and competitive inhibitors, average with standard deviation, at least three experiments, read-out: Ki HsAPN
[9] = more effective than Actinomycin D/X2

| IC50 [1, 5] [µM] | Ki [1, 6] [µM] | times less effective, HsMetAP2 ([1]; in contrast to Actinocin) [times] | decrease in activity for HsMetAP2 compared to the lead compound ([1]; lead compound = Actinomycin D) | IC50 [3, 7] [µM] | Ki [3, 8] [µM] | times less effective, HsAPN ([3]; in contrast to Actinocin) [times] | decrease in activity for HsAPN compared to the lead compound ([3]; lead compound = Actinomycin D) | effectiveness relative to Actinomycin D/X2, HsMetAP2 [1, 9] | effectiveness relative to Actinomycin D/X2, HsAPN [3, 9] | Compound | mechanism of inhibition of HsMetAP2 [1] | IC50 [2] [nM] | mechanism of inhibition of HsAPN [3] | IC50 [1] [µM] | Ki [1] [µM] | IC50 [3] [µM] | Ki [3] [µM] | CC50 [4] [nM] |
| --- | --- | --- | --- | --- | --- | --- | --- | --- | --- | --- | --- | --- | --- | --- | --- | --- | --- | --- |
| 34.9 ± 3.2 | 30.4 ± 3.2 | 10 | five-fold | 63 ± 3.2 | 52.5 ± 2.7 | 10 | five-fold | – | – | Nc1cc2nc3ccccc3oc-2cc1=O [Questiomycin A] | competitive | 1000 to 3000 | competitive | – | – | – | – | – |
| 2.34 ± 0.62 | 2.04 ± 0.23 | – | – | 7.25 ± 1.2 | 6.04 ± 0.51 | – | – | four times as effective | twice as effective | Cc1c2oc3c(C)ccc(C(=O)O)c3nc-2c(C(=O)O)c(N)c1=O [Actinocin] | competitive | – | competitive | – | – | – | – | – |
| – | – | – | – | – | – | – | – | – | – | Cc1c2oc3c(C)ccc(C(=O)N[C@@H]4C(=O)N[C@H](C(C)C)C(=O)N5CCC[C@H]5C(=O)N(C)CC(=O)N(C)[C@@H](C(C)C)C(=O)O[C@@H]4C)c3nc-2c(C(=O)N[C@@H]2C(=O)N[C@H](C(C)C)C(=O)N3CCC[C@H]3C(=O)N(C)CC(=O)N(C)[C@@H](C(C)C)C(=O)O[C@@H]2C)c(N)c1=O [Actinomycin D] (I: T[dV]P[Sar][NMeV] / II: T[dV]P[Sar][NMeV]; ester I:1-I:C, II:1-II:C; linker I:N-II:N via Actinocin(9to1)) | non-competitive | 1 to 8 | non-competitive | 7.37 ± 0.56 | 7.37 ± 0.56 | 11.9 ± 1.1 | 11.9 ± 1.1 | – |
| – | – | – | – | – | – | – | – | – | – | Cc1c2oc3c(C)ccc(C(=O)N[C@@H]4C(=O)N[C@H](C(C)C)C(=O)N5CCC[C@H]5C(=O)N(C)CC(=O)N(C)[C@@H](C(C)C)C(=O)O[C@@H]4C)c3nc-2c(C(=O)N[C@@H]2C(=O)N[C@H](C(C)C)C(=O)N3CC(=O)C[C@H]3C(=O)N(C)CC(=O)N(C)[C@@H](C(C)C)C(=O)O[C@@H]2C)c(N)c1=O [Actinomycin X2, reference compound] (I: T[dV][Pro(4-oxo)][Sar][NMeV] / II: T[dV]P[Sar][NMeV]; ester I:1-I:C, II:1-II:C; linker I:N-II:N via Actinocin(1to9)) | non-competitive | – | non-competitive | 8.33 ± 0.75 | 8.33 ± 0.75 | 12.2 ± 1.4 | 12.2 ± 1.4 | 8 |

Reference: article PMC6047675, “Neutral metalloaminopeptidases APN and MetAP2 as newly discovered anticancer molecular targets of actinomycin D and its simple analogs” (Oncotarget, 2018)
